# Reference: US20240216395A1, “19-NOR C3,3-DISUBSTITUTED C21 -N-PYRAZOLYL STEROID FOR USE IN TREATING MAJOR DEPRESSIVE DISORDER AND […]” (priority 2021, published 2024)
# Where “and” joins values, the source holds several entries; their conditions need not be identical. Equal values may be shown once.
# Tested on: adult subjects with major depressive disorder (MDD)
# Experiment: Phase 3 placebo-controlled study of Compound (1) 50 mg QD for 14 days in MDD (NCT04442490): efficacy scales
# Assay type: in vivo, human
# Conditions: for Day 15 HAMD-17 improvement maintained on average: Day 15 HAMD-17 responders; for Day 15 MADRS improvement maintained on average: Day 15 MADRS responders
# Excerpt: Title of Study: A Phase 3, Multicenter, Double-Blind, Randomized, Placebo-Controlled Study Evaluating the Efficacy of Compound (1) in the Treatment of Adult Subjects with Major Depressive Disorder
# This was a randomized, double-blind, parallel-group, placebo-controlled study in subjects with MDD. The diagnosis of MDD was made according to Structured Clinical Interview for Diagnostic and DSM-5 Clinical Trial Version (SCID-5-CT) performed by a qualified healthcare professional.
# Eligible subjects were stratified based on use of antidepressant treatment (current/stable or not treated/withdrawn ≥60 days) and randomized within each stratum to one of 2 treatment groups (Compound (1)—50 mg or matching placebo) in a 1:1 ratio. Subjects self-administered study drug once daily at approximately 8 PM with fat-containing food (e.g., within 1 hour of an evening meal which contains fat or with a fat-containing snack), on an outpatient basis, for 14 days. Subjects returned to the study center during the treatment and follow-up periods as outlined in Table 1.
# Subjects self-administered Compound (1) (50 mg or 40 mg [for dose adjustments only as permitted]) or matching placebo orally once daily at approximately 8 PM with food for 14 days. The 50-mg and 40-mg doses was administered as 2 capsules per dose (50 mg, administered as one 30 mg-capsule and one 20-mg capsule, and 40-mg, administered as two 20-mg capsules). Placebo was also administered as 2 capsules to maintain the blind.
# The estimand for the primary efficacy analysis was the mean change from baseline in HAM-D total score at Day 15. This was analyzed using a mixed effects model for repeated measures (MMRM); the model included treatment, baseline HAM-D total score, stratification factor, assessment time point, and time point-by-treatment as explanatory variables. All explanatory variables were treated as fixed effects. All post-baseline time points were included in the model. The main comparison was between Compound (1) and placebo at the 15-day time point. Model-based point estimates (e.g., least squares [LS] means, 95% confidence intervals, and p-values) were reported where applicable. An unstructured covariance structure was used to model the within-subject errors. If there was a convergence issue with the unstructured covariance model, Toeplitz, or Autoregressive (1) [AR(1)] covariance structure was used, following this sequence until convergence was achieved. […] When the covariance structure was not UN, the sandwich estimator for the variance covariance matrix was derived, using the EMPIRICAL option in the PROC MIXED statement in SAS.
# Similar to those methods described above for the primary endpoint, an MMRM was used for the analysis of the change from baseline in other time points in HAM-D total score, MADRS total score, HAM-A total score, SF-36v2 score, PHQ-9 score, and selected individual items and/or subscale scores in HAM-D for change from baseline.
# Generalized estimating equation (GEE) methods were used for the analysis of HAM-D Response (defined as ≥50% reduction from baseline in HAM-D total score) and HAM-D Remission (defined as HAM-D total score of ≤7.0). GEE models included terms for treatment, baseline score, stratification factor, assessment time point, and time point-by-treatment as explanatory variables. The comparison of interest was the difference between Compound (1) and matching placebo at the 15-day time point. Model-based point estimates (e.g., odds ratios), 95% confidence intervals, and p-values were reported.
# A GEE method was also used for the analysis of CGI-I Response including terms for treatment, baseline CGI-S score, stratification factor, assessment time point, and time point-by-treatment as explanatory variables.
# Compound (1) is an investigational two-week, once-daily oral drug for MDD that represents a potential new class of drug for the management of this common but serious mental health disorder. […]
smiles,measurement,setting,value
"C[C@@]1(O)CC[C@H]2[C@H](CC[C@@H]3[C@@H]2CC[C@]2(C)[C@@H](C(=O)Cn4cc(C#N)cn4)CC[C@@H]32)C1 [Compound (1), 1-(2-((3R,5R,8R,9R,10S,13S,14S,17S)-3-hydroxy-3,13-dimethylhexadecahydro-1H-cyclopenta[a]phenanthren-17-yl)-2-oxoethyl)-1H-pyrazole-4-carbonitrile]",HAMD-17 Remission odds ratio (95% CI) vs placebo,"ADT=No, Day 3","2.4 (0.91, 6.58)"
same,HAMD-17 Response odds ratio (95% CI) vs placebo,"ADT=No, Day 3","2.3 (1.36, 3.79)"
same,HAMD-17 Remission odds ratio (95% CI) vs placebo,"ADT=No, Day 8","2.1 (1.14, 3.91)"
same,HAMD-17 Response odds ratio (95% CI) vs placebo,"ADT=No, Day 8","1.7 (1.08, 2.58)"
same,HAMD-17 Remission odds ratio (95% CI) vs placebo,"ADT=No, Day 12","1.5 (0.92, 2.44)"
same,HAMD-17 Response odds ratio (95% CI) vs placebo,"ADT=No, Day 12","1.5 (1.02, 2.35)"
same,HAMD-17 Remission odds ratio (95% CI) vs placebo,"ADT=No, Day 15","1.1 (0.70, 1.76)"
same,HAMD-17 Response,"ADT=No, Day 15",55.5 n/N (%)
same,HAMD-17 Response odds ratio (95% CI) vs placebo,"ADT=No, Day 15","1.4 (0.92, 2.12)"
same,HAMD-17 Remission odds ratio (95% CI) vs placebo,"ADT=No, Day 21","1.0 (0.62, 1.65)"
same,HAMD-17 Response odds ratio (95% CI) vs placebo,"ADT=No, Day 21","1.1 (0.73, 1.70)"
same,HAMD-17 Remission odds ratio (95% CI) vs placebo,"ADT=No, Day 28","0.86 (0.52, 1.41)"
same,HAMD-17 Response odds ratio (95% CI) vs placebo,"ADT=No, Day 28","1.0 (0.65, 1.55)"
same,HAMD-17 Remission odds ratio (95% CI) vs placebo,"ADT=No, Day 35","1.1 (0.66, 1.74)"
same,HAMD-17 Response odds ratio (95% CI) vs placebo,"ADT=No, Day 35","1.1 (0.72, 1.70)"
same,HAMD-17 Remission odds ratio (95% CI) vs placebo,"ADT=No, Day 42","1.0 (0.61, 1.55)"
same,HAMD-17 Response odds ratio (95% CI) vs placebo,"ADT=No, Day 42","1.2 (0.81, 1.90)"
same,HAMD-17 Response odds ratio (95% CI) vs placebo,"ADT=Yes, Day 3","1.9 (0.87, 3.98)"
same,HAMD-17 Response odds ratio (95% CI) vs placebo,"ADT=Yes, Day 8","1.9 (1.01, 3.73)"
same,HAMD-17 Response odds ratio (95% CI) vs placebo,"ADT=Yes, Day 12","1.9 (0.98, 3.58)"
same,HAMD-17 Response,"ADT=Yes, Day 15",57.3 n/N (%)
same,HAMD-17 Response odds ratio (95% CI) vs placebo,"ADT=Yes, Day 15","1.4 (0.74, 2.71)"
same,HAMD-17 Response odds ratio (95% CI) vs placebo,"ADT=Yes, Day 21","1.8 (0.95, 3.53)"
same,HAMD-17 Response odds ratio (95% CI) vs placebo,"ADT=Yes, Day 28","1.4 (0.72, 2.64)"
same,HAMD-17 Response odds ratio (95% CI) vs placebo,"ADT=Yes, Day 35","1.4 (0.76, 2.75)"
same,HAMD-17 Response odds ratio (95% CI) vs placebo,"ADT=Yes, Day 42","1.7 (0.91, 3.34)"
same,CGI-Improvement Response odds ratio vs placebo,Day 3,1.8 (0.0032)
same,CGI-Severity LS mean TRT diff vs placebo,Day 3,−0.4 (<0.0001)
same,HAMD-17 total score LS mean (SE) CFB,Day 3,−9.8 (0.38)
same,HAMD-17 total score LS mean TRT diff vs placebo,Day 3,−3.0 (<0.0001) points
same,CGI-Improvement Response odds ratio vs placebo,Day 8,1.9 (0.0005)
same,CGI-Severity LS mean TRT diff vs placebo,Day 8,−0.4 (0.0001)
same,HAM-A total score LS mean (SE) CFB,Day 8,−8.7 (0.40)
same,HAMD-17 total score LS mean (SE) CFB,Day 8,−12.0 (0.45)
same,MADRS total score LSM (SE) CFB,Day 8,−14.6 (0.69)
same,CGI-Improvement Response odds ratio vs placebo,Day 12,1.6 (0.0101)
same,CGI-Severity LS mean TRT diff vs placebo,Day 12,−0.3 (0.0014)
same,CGI-Improvement Response odds ratio vs placebo,Day 15,1.5 (0.0191)
same,HAM-A total score LS mean (SE) CFB,Day 15,−10.4 (0.43)
same,HAMD-17 Anxiety subscale LSM difference vs placebo,Day 15,−0.9 points
same,HAMD-17 Bech-6 subscale LSM difference vs placebo,Day 15,−3.2 points
same,HAMD-17 Core Depression subscale LSM difference vs placebo,Day 15,−2.0 points
same,HAMD-17 Maier subscale LSM difference vs placebo,Day 15,−3.0 points
same,HAMD-17 early insomnia item mean reduction from baseline,Day 15,−1.0
same,HAMD-17 late insomnia item mean reduction from baseline,Day 15,−0.8
same,HAMD-17 middle insomnia item mean reduction from baseline,Day 15,−1.2
same,HAMD-17 total score LS mean (SE) CFB,Day 15,−14.1 (0.51)
same,MADRS Response (≥50% reduction) rate,Day 15,51.6%
same,MADRS total score LS mean TRT diff vs placebo,Day 15,−2.4 points and −2.4 (0.0238) points
same,SF-36v2 Bodily Pain (BP) CFB,Day 15,5.26
same,SF-36v2 General Health (GH) CFB,Day 15,4.51
same,SF-36v2 Mental Health (MH) CFB,Day 15,14.45
same,SF-36v2 Physical-Functioning (PF) CFB,Day 15,3.41
same,SF-36v2 Role-Emotional (RE) CFB,Day 15,14.19
same,SF-36v2 Role-Physical (RP) CFB,Day 15,3.45
same,SF-36v2 Social-Functioning (SF) CFB,Day 15,12.89
same,SF-36v2 Vitality (V) CFB,Day 15,13.12
same,SF-36v2 least-squares mean vitality score increase versus placebo,Day 15,3.1
same,HAMD-17 total score LS mean TRT diff vs placebo,Day 15 (primary endpoint),−1.7 points and −1.7 (0.0141) points
same,"HAMD-17 LSM treatment difference vs placebo, subgroup","Day 15, ADT use No (monotherapy)",−1.98
same,"HAMD-17 LSM treatment difference vs placebo, subgroup","Day 15, ADT use Yes (combination)",−1.21
same,"HAMD-17 LSM treatment difference vs placebo, subgroup","Day 15, age 18-24 years",−1.67
same,"HAMD-17 LSM treatment difference vs placebo, subgroup","Day 15, age 25-50 years",−1.96
same,"HAMD-17 LSM treatment difference vs placebo, subgroup","Day 15, age 51-64 years",−1.18
same,"HAMD-17 LSM treatment difference vs placebo, subgroup","Day 15, baseline BMI 18.5-24.9 kg/m^2",−1.02
same,"HAMD-17 LSM treatment difference vs placebo, subgroup","Day 15, baseline BMI 25-29.9 kg/m^2",−3.94
same,"HAMD-17 LSM treatment difference vs placebo, subgroup","Day 15, baseline BMI ≥30 kg/m^2",−1.04
same,"HAMD-17 LSM treatment difference vs placebo, subgroup","Day 15, baseline HAMD-17TS <26",−1.25
same,"HAMD-17 LSM treatment difference vs placebo, subgroup","Day 15, baseline HAMD-17TS ≥26",−1.91
same,"HAMD-17 LSM treatment difference vs placebo, subgroup","Day 15, female",−1.58
same,"HAMD-17 LSM treatment difference vs placebo, subgroup","Day 15, male",−1.81
same,"HAMD-17 LSM treatment difference vs placebo, subgroup","Day 15, race Black",−2.20
same,"HAMD-17 LSM treatment difference vs placebo, subgroup","Day 15, race Other",−4.22
same,"HAMD-17 LSM treatment difference vs placebo, subgroup","Day 15, race White",−1.47
same,Day 15 HAMD-17 improvement maintained on average,Day 28,81.7%
same,Day 15 HAMD-17 improvement maintained on average,Day 42,86.1%
same,Day 15 MADRS improvement maintained on average,Day 28,85.2%
same,Day 15 MADRS improvement maintained on average,Day 42,87.6%
same,Patients retaining ≥65% of Day 15 HAMD-17 improvement,Day 21,81.0%
same,MADRS total score LS mean TRT diff vs placebo,Day 28,−1.5
same,MADRS total score LSM (SE) CFB,Day 28,−16.4 (0.80)
same,HAMD-17 total score LS mean (SE) CFB,Day 42,−13.5 (0.55)
same,HAMD-17 total score LS mean TRT diff vs placebo,Day 42,−0.9
same,MADRS total score LS mean TRT diff vs placebo,Day 42,−1.3
same,MADRS total score LSM (SE) CFB,Day 42,−17.5 (0.83)
same,Patients retaining ≥65% of Day 15 HAMD-17 improvement,Day 42,75.4% and 74.9%
same,HAMD-17 Remission (HAMD-17≤7) rate,"overall, Day 3",7.6%
same,HAMD-17 Remission odds ratio vs placebo,"overall, Day 3",3.57
same,HAMD-17 Response (≥50% reduction) rate,"overall, Day 3",29.3%
same,HAMD-17 Response odds ratio vs placebo,"overall, Day 3",2.14
same,HAMD-17 Response (≥50% reduction) rate,"overall, Day 15",56.0%
same,HAMD-17 Response odds ratio vs placebo,"overall, Day 15",1.40
